Assay results as given in US7947697B1, “8-(3-pentylamino)-2-methyl-3-(2-chloro-4-methoxyphenyl)-6,7-dihydro-5H-cyclopenta[d] pyrazolo[1,5-a]pyrimidine methanesulfonate as a CRF antagonist” (Ono Pharmaceutical Co., Ltd., priority 2003, dated 2011).
“Also recorded” adds a separate entry of the source.

Tests used:
[1] = Thermal stability by differential scanning calorimetry (DSC); assay type: physicochemical; conditions: for thermal stability: DSC chart / heat
Text: On the other hand, DSC chart of 8-(3-pentylamino)-2-methyl-3-(2-chloro-4-methoxyphenyl)-6,7-dihydro-5H-cyclopenta[d]pyrazolo[1,5-a]pyrimidine hydrochloride described in WO 02/053565 is shown in FIG. 2.
It was very surprising that the difference of the salt influenced heat stability like this greatly, and it was not easily expected.
(3) Differential Scanning Calorimeter (DSC)

[2] = biological target: T1, human CRF1 receptor (Homo sapiens, UniProt P34998); experiment: Binding assay ([125I] h/r CRF, cell membrane fraction); conditions: membrane fraction of CHO-K1 cells expressing human CRF1 receptor; [125I] h/r CRF 0.25 nM; 2 hours, room temperature; read-out: affinity on CRF1 receptor (IC50)
T1 construct: expressed in transfected cells; F-12 medium fits
T1 sequence (P34998 24-415): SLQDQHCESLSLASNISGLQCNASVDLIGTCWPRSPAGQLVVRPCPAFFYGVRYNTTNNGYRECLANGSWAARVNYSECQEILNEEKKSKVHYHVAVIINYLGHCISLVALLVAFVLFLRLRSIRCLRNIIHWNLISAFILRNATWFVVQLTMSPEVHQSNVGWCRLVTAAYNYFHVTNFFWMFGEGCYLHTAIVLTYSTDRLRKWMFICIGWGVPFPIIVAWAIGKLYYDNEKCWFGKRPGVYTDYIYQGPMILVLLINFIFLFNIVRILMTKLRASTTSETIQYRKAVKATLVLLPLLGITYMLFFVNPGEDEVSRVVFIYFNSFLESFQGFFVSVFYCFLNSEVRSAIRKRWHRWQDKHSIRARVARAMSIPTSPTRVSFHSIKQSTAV
Method: Cell Membrane Preparation
After a cell line expressing a human CRF1 receptor (expressed cell line: CHO-K1 cells) was cultured to reach confluence, the cells were harvested with a scraper. Harvested cells were washed twice with PBS before being suspended in a binding assay buffer (Tris-HCl (50 mM, pH 7.0), EDTA (2 mM, pH 8.0), and MgCl2 (10 mM)) cooled by ice. Suspended cells were homogenized with a Downs-type homogenizer and subjected to centrifugation at 10,000 g to collect the membrane fraction. The harvested cell membrane fraction was re-suspended with a small quantity of the binding assay buffer, and further diluted with said buffer to 1 mg/mL. The membrane fraction thus obtained was used for binding assay.
Fifty μL of [^125I] h/r CRF prepared to 0.5 nM with binding assay buffer was added to siliconized 1.5 mL tubes. Each of 1 μL of compounds diluted in appropriate multiples, DMSO (for total binding use) and h/r CRF solution (100 μM, for the non-specific binding use) was added to the tubes. Samples of 50 μL each of the membrane fraction preparation were added to the tubes to initiate the reaction (final concentration of [^125I] h/r CRF: 0.25 nM), then the mixtures were incubated for 2 hours at room temperature. […] Radioactivity values of the respective tubes were measured with a γ-counter. […]

[3] = biological target: T1, human CRF1 receptor; experiment: Receptor antagonistic activity (cyclic AMP assay); assay type: cell-based; conditions: cells expressing human CRF1 receptor; human/rat CRF-stimulated intracellular cyclic AMP; read-out: antagonist activity on CRF receptor (IC50)
Method: Receptor Antagonistic Activity (Cyclic AMP Assay):
A cell line expressing a human CRF1 receptor was cultured using 10% bovine embryo serum and 1% F-12 nutrient mixture containing antibiotics and antifungal under 37° C., 5% carbonic anhydride, 95% air. On the day before a measurement of cyclic AMP, the cell seed to 96-well plate to be 1×10^4 cell/well. On the measurement day, the cell was washed twice with F-12 nutrient mixture, and F-12 nutrient mixture/1 mM 3-isobutyl-1-methylxanthin (assay medium) (178 μL) was added to each well. After they were incubated for 10 minutes at 37° C., each of various concentrated solutions of the test compound (2 μL) was added, or DMSO (2 μL) was added to CRF group and blank group. After they were incubated for 15 minutes at 37° C., 10 nM assay medium containing human/rat CRF (20 μL) was added to the test compound group and CRF group. To the blank group, an assay medium containing 0.00001% acetic acid (20 μL) was added. Furthermore, they were incubated for 15 minutes at 37° C. […] The cumulative dosage of intracellular cyclic AMP was measured by Biotrak enzyme immunoassay system (Amersham Biosciences). […] The IC50 values calculated by nonlinear regression analysis with logarithm concentrate of the compound as the autonomous variable and cyclic AMP cumulative dosage as an induced variable

[4] = Solubility; assay type: physicochemical
[5] = Disposition
[6] = Toxicity
[7] = Stability of the crystal for humidity and light; assay type: physicochemical

Which thermal stability [1] does the source give for C1=Cc2cccc(OC[C@H]3CNCCO3)c2C1.O=S(=O)(O)c1ccccc1 [benzenesulfonate] here?
Its thermal stability is “superior in thermal stability”.

With CC1(C)C2CCC1(CS(=O)(=O)O)C(=O)C2.CCC(CC)Nc1c2c(nc3c(-c4ccc(OC)cc4Cl)c(C)nn13)CCC2 [camphorsulfonate (D, L, or DL)] as the compound, how does the thermal stability [1] read?
Its thermal stability is “superior in thermal stability”.

With CCC(CC)Nc1c2c(nc3c(-c4ccc(OC)cc4Cl)c(C)nn13)CCC2 [compound (1), 8-(3-pentylamino)-2-methyl-3-(2-chloro-4-methoxyphenyl)-6,7-dihydro-5H-cyclopenta[d]pyrazolo[1,5-a]pyrimidine methanesulfonate] as the compound, how does the IC50 [2] read?
The IC50 was less than 1000 nM.

What about the IC50 [3] of the same compound?
The IC50 was less than 1000 nM.

What about the thermal stability ([1]; listed as the methanesulfonate compound, methanesulfonate) of the same compound?
Its thermal stability is “superior thermal stability”.

What about the thermal stability ([1]; methanesulfonate) of the same compound?
Its thermal stability is “steady; also recorded: superior in thermal stability”.

What about the solubility [4] of the same compound?
The solubility was “remarkably superior”.

What about the disposition [5] of the same compound?
The disposition was “remarkably superior”.

And the toxicity [6]?
The toxicity was “very low”.

What about the stability for humidity [7] of the same compound?
The stability for humidity was “steady”.

What about the stability for light [7] of the same compound?
The stability for light was “steady”.

Which results are given for CCC(CC)Nc1c2c(nc3c(-c4ccc(OC)cc4Cl)c(C)nn13)CCC2.Cl [the hydrochloride compound, 8-(3-pentylamino)-2-methyl-3-(2-chloro-4-methoxyphenyl)-6,7-dihydro-5H-cyclopenta[d]pyrazolo[1,5-a]pyrimidine hydrochloride, reference compound]?
thermal stability ([1]; hydrochloride): unstable compound to heat; thermal stability ([1]; listed as 8-(3-pentylamino)-2-methyl-3-(2-chloro-4-methoxyphenyl)-6,7-dihydro-5H-cyclopent, hydrochloride): poor; temperature at which the DSC curve changed significantly ([1]; DSC chart FIG. 2, then changed gradually after over 50° C.): ~40 °C

With CCC(CC)Nc1c2c(nc3c(-c4ccc(OC)cc4Cl)c(C)nn13)CCC2.Cc1ccc(S(=O)(=O)O)cc1 [tosylate, 8-(3-pentylamino)-2-methyl-3-(2-chloro-4-methoxyphenyl)-6,7-dihydro-5H-cyclopenta[d]pyrazolo[1,5-a]pyrimidine tosylate] as the compound, how does the thermal stability [1] read?
The thermal stability was “superior in thermal stability”.
